Reference: patent publication US20260285850A1, “SUBSTITUTED OXAZOLIDINONES AND IMIDAZOLINONES AS HERBICIDES” (FMC CORPORATION, priority 2023, published 2026)

Experiments:
Format in all cases: in vivo
[1] = tested on: sedge, umbrella (small-flower umbrella sedge, Cyperus difformis); assay: Test B flooded paddy test, visual plant response rating 0-100; details: 250 g ai/ha, Flood, applied to paddy water, evaluated after 13 days
Outline: (§1)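 2-leaf plants; flood 3 cm over soil; compound dosed into paddy water; depth kept constant; greenhouse 13 d; visual scoring vs controls. Dash = no result.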

[2] = tested on: ducksalad (Heteranthera limosa); assay: as above; details: 250 g ai/ha, Flood, applied to paddy water, evaluated after 13 days
Outline: as §1

rice (Oryza sativa) = assay: as above; details: 250 g ai/ha, Flood, applied to paddy water, evaluated after 13 days
Outline: as §1

[3] = tested on: barnyardgrass (Echinochloa crusgalli); assay: as above; details: 250 g ai/ha, Flood, applied to paddy water, evaluated after 13 days
Outline: as §1

[4] = tested on: barnyardgrass (Echinochloa crus-galli); assay: Test A postemergence application, visual injury rating 0-100; details: 10 days
Outline: (§2)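 Preemergence directed soil spray or postemergence spray (2-10 cm, 1-2 leaf); loam/sand mix; compound in non-phytotoxic solvent + surfactant. Greenhouse, 10 d. Visual injury vs untreated, 0 = none, 100 = complete control.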

[5] = tested on: blackgrass (Alopecurus myosuroides); assay: as above; details: 10 days
Outline: as §2

soybean (Glycine max) [6] = assay: as above; details: 10 days
Outline: as §2

[7] = tested on: ragweed (common ragweed, Ambrosia artemisiifolia); assay: as above; details: 10 days
Outline: as §2

kochia (Bassia scoparia) [8] = assay: as above; details: 10 days
Outline: as §2

[9] = tested on: palmer (palmer amaranth, palmer pigweed, Amaranthus palmeri); assay: as above; details: 10 days
Outline: as §2

[10] = tested on: wheat (Triticum aestivum); assay: as above; details: 10 days
Outline: as §2

[11] = tested on: oat, wild (wild oat, Avena fatua); assay: as above; details: 10 days
Outline: as §2

[12] = tested on: horseweed (Erigeron canadensis); assay: as above; details: 10 days
Outline: as §2

[13] = tested on: green foxtail (Setaria viridis); assay: as above; details: 10 days
Outline: as §2

[14] = tested on: ryegrass, Italian (italian ryegrass, Lolium multiflorum); assay: as above; details: 10 days
Outline: as §2

corn (Zea mays) [15] = assay: as above; details: 10 days
Outline: as §2

[16] = tested on: barnyardgrass (Echinochloa crus-galli); assay: Test A preemergence soil spray, visual injury rating 0-100; details: 10 days, 0 = no effect, 100 = complete control
Outline: as §2

[17] = tested on: blackgrass (Alopecurus myosuroides); assay: as above; details: 10 days, 0 = no effect, 100 = complete control
Outline: as §2

soybean (Glycine max) [18] = assay: as above; details: 10 days, 0 = no effect, 100 = complete control
Outline: as §2

[19] = tested on: ragweed (common ragweed, Ambrosia artemisiifolia); assay: as above; details: 10 days, 0 = no effect, 100 = complete control
Outline: as §2

kochia (Bassia scoparia) [20] = assay: as above; details: 10 days, 0 = no effect, 100 = complete control
Outline: as §2

[21] = tested on: palmer (palmer amaranth, palmer pigweed, Amaranthus palmeri); assay: as above; details: 10 days, 0 = no effect, 100 = complete control
Outline: as §2

[22] = tested on: wheat (Triticum aestivum); assay: as above; details: 10 days, 0 = no effect, 100 = complete control
Outline: as §2

[23] = tested on: oat, wild (wild oat, Avena fatua); assay: as above; details: 10 days, 0 = no effect, 100 = complete control
Outline: as §2

[24] = tested on: green foxtail (Setaria viridis); assay: as above; details: 10 days, 0 = no effect, 100 = complete control
Outline: as §2

[25] = tested on: ryegrass, Italian (italian ryegrass, Lolium multiflorum); assay: as above; details: 10 days, 0 = no effect, 100 = complete control
Outline: as §2

corn (Zea mays) [26] = assay: as above; details: 10 days, 0 = no effect, 100 = complete control
Outline: as §2

[27] = 31 g ai/ha, postemergence, 0 = no effect, 100 = complete control
[28] = Postemergence, 125 g ai/ha, 0 is no effect, 100 is complete control

CCOC(=O)C1CCC(NC(=O)C2(C)CN(c3cc(F)cc(F)c3)C(=O)O2)C1 (centres unmarked) [Compound 11]
10: Corn plant response rating (0-100) (corn (Zea mays) [15]; [27])
25: Plant response rating, Rice (0 to 100 scale, 0 is no effect and 100 is complete control) (rice (Oryza sativa))
40: Ryegrass, Italian plant response rating (0-100) ([25]; 31 g ai/ha)
65: Plant response rating, Ducksalad (0 to 100 scale, 0 is no effect and 100 is complete control) [2]
0: Ragweed plant response rating (0-100) [7, 27] | Ragweed plant response rating (0 to 100 scale) [7, 28] | Barnyardgrass plant response rating (0-100) ([16]; 31 g ai/ha) | Soybean plant response rating (0-100) (soybean (Glycine max) [18]; 31 g ai/ha) | Ragweed plant response rating (0-100) ([19]; 31 g ai/ha) | Kochia plant response rating (0-100) (kochia (Bassia scoparia) [20]; 31 g ai/ha) | Amaranth, Palmer plant response rating (0-100) ([21]; 31 g ai/ha) | Foxtail, Green plant response rating (0-100) ([24]; 31 g ai/ha) | Corn plant response rating (0-100) (corn (Zea mays) [26]; 31 g ai/ha)
30: Blackgrass plant response rating (0-100) [5, 27] | Amaranth, Palmer plant response rating (0-100) [9, 27] | Horseweed plant response rating (0-100) [12, 27] | Foxtail, Green plant response rating (0-100) [13, 27] | Amaranth, Palmer plant response rating (0 to 100 scale) ([21]; 125 g ai/ha)
50: Plant response rating, Barnyardgrass (0 to 100 scale, 0 is no effect and 100 is complete control) [3] | Soybean plant response rating (0-100) (soybean (Glycine max) [6]; [27]) | Ryegrass, Italian plant response rating (0-100) [14, 27] | Kochia plant response rating (0 to 100 scale) (kochia (Bassia scoparia) [20]; 125 g ai/ha) | Corn plant response rating (0 to 100 scale) (corn (Zea mays) [26]; 125 g ai/ha)
90: Blackgrass plant response rating (0 to 100 scale) [5, 28] | Wheat plant response rating (0 to 100 scale) [10, 28] | Oat, Wild plant response rating (0 to 100 scale) [11, 28] | Foxtail, Green plant response rating (0 to 100 scale) [13, 28] | Blackgrass plant response rating (0 to 100 scale) ([17]; 125 g ai/ha) | Wheat plant response rating (0-100) ([22]; 31 g ai/ha) | Ryegrass, Italian plant response rating (0 to 100 scale) ([25]; 125 g ai/ha)
100: Barnyardgrass plant response rating (0 to 100 scale) [4, 28] | Barnyardgrass plant response rating (0 to 100 scale) ([16]; 125 g ai/ha) | Wheat plant response rating (0 to 100 scale) ([22]; 125 g ai/ha) | Foxtail, Green plant response rating (0 to 100 scale) ([24]; 125 g ai/ha)
60: Plant response rating, Sedge, Umbrella (0 to 100 scale, 0 is no effect and 100 is complete control) [1] | Barnyardgrass plant response rating (0-100) [4, 27] | Soybean plant response rating (0 to 100 scale) (soybean (Glycine max) [6]; [28]) | Amaranth, Palmer / Pigweed, Palmer plant response rating (0 to 100 scale) [9, 28]
80: Kochia plant response rating (0 to 100 scale) (kochia (Bassia scoparia) [8]; [28]) | Wheat plant response rating (0-100) [10, 27] | Oat, Wild plant response rating (0-100) [11, 27] | Corn plant response rating (0 to 100 scale) (corn (Zea mays) [15]; [28]) | Oat, Wild plant response rating (0 to 100 scale) ([23]; 125 g ai/ha)
20: Kochia plant response rating (0-100) (kochia (Bassia scoparia) [8]; [27]) | Horseweed plant response rating (0 to 100 scale) [12, 28] | Blackgrass plant response rating (0-100) ([17]; 31 g ai/ha) | Soybean plant response rating (0 to 100 scale) (soybean (Glycine max) [18]; 125 g ai/ha) | Oat, Wild plant response rating (0-100) ([23]; 31 g ai/ha)
70: Ryegrass, Italian plant response rating (0 to 100 scale) [14, 28] | Ragweed plant response rating (0 to 100 scale) ([19]; 125 g ai/ha)
